Patent US11873295B2, “Allosteric chromenone inhibitors of phosphoinositide 3-kinase (PI3K) for the treatment of disease” (Petra Pharma Corporation, priority 2021, dated 2024)

Legend:
[1] = test system: PI3K-α (PIK3CA) in MDA-MB-453 cells; test: PI3K-alpha kinase (PIK3CA) activity in vitro cell based assay, MDA-MB-453 cells, AlphaLisa SureFire; conditions: Homo sapiens, MDA-MB-453, 3 h, 0% FBS, 3 hours treatment, relative IC50
In short: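 MDA-MB-453 cells in serum-free MEM with 1 μg/mL insulin treated 3 h with 10-point 1:3 compound dilutions, 0.3% DMSO. Lysates read by AlphaLisa SureFire; percent inhibition relative to DMSO (max) and 1 μM GDC-0032 (min), duplicate means fitted to 4-parameter logistic for relative IC50.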

[2] = molecular target: T1, human full length PIK3KA Wild-type (p110α/p85α complex) (Homo sapiens, UniProt P42336); test: PI3K-alpha kinase (PIK3CA) biochemical activity, wild-type, ADP-Glo; conditions: PI3K-α (PIK3CA) biochemical, Soy PI lipid substrate
T1 construct: Recombinant, catalytically active human full length PIK3KA Wild-type and H1047R mutant were purchased as 1:1 complex; 6xHis (N); purchased EMD Millipore Sigma 14-602M
In short: (§1)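 Full-length His-p110α/p85α complex, wild-type or H1047R, 1–5 nM, preincubated with compound 1 h at 27 °C in HEPES pH 7.4, 25 mM MgCl2, 0.01% Triton X-100, 1% DMSO. Reaction with 20 μM ATP and 50 μM PIP2diC8 or soy PI at 27 °C to ~10% ATP conversion; ADP-Glo luminescence. IC50 from 10-point four-parameter logistic fit.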

[3] = molecular target: T2, human full length PIK3KA H1047R mutant (p110α/p85α complex) (Homo sapiens, UniProt P42336, H1047R); test: PI3K-alpha kinase (PIK3CA) biochemical activity, H1047R mutant, ADP-Glo; conditions: PI3K-α (PIK3CA) biochemical, H1047R mutant, Soy PI lipid substrate
T2 construct: Recombinant, catalytically active human full length PIK3KA Wild-type and H1047R mutant were purchased as 1:1 complex; 6xHis (N); purchased EMD Millipore Sigma 14-792M
T2 sequence (P42336 whole entry H1047R): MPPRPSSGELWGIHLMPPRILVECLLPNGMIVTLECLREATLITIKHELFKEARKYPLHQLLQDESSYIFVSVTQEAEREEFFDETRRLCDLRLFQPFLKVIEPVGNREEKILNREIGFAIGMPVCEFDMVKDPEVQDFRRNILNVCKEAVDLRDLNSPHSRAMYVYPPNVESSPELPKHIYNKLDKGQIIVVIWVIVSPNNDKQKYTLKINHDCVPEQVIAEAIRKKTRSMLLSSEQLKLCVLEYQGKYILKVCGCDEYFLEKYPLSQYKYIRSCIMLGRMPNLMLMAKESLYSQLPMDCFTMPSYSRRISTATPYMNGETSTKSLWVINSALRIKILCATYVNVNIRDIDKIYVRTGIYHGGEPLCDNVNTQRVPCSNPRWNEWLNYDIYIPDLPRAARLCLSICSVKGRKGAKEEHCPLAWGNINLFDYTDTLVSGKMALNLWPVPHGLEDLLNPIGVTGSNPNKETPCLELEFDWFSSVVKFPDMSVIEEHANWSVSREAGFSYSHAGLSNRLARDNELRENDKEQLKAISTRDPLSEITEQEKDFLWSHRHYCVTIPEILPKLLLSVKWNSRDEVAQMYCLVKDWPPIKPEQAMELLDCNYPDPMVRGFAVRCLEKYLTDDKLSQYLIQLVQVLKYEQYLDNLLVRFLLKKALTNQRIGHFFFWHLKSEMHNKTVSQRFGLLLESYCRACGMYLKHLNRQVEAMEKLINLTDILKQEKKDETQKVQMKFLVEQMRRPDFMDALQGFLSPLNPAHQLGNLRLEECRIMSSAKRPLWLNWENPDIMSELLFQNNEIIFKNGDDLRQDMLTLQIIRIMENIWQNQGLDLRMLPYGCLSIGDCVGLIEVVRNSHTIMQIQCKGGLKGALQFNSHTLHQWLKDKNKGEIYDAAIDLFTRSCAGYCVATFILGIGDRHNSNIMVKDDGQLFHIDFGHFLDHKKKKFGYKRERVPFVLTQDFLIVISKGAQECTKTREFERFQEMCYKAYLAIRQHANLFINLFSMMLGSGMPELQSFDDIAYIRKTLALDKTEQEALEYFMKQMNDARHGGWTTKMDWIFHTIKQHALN
T2 sequence (P27986 whole entry partner): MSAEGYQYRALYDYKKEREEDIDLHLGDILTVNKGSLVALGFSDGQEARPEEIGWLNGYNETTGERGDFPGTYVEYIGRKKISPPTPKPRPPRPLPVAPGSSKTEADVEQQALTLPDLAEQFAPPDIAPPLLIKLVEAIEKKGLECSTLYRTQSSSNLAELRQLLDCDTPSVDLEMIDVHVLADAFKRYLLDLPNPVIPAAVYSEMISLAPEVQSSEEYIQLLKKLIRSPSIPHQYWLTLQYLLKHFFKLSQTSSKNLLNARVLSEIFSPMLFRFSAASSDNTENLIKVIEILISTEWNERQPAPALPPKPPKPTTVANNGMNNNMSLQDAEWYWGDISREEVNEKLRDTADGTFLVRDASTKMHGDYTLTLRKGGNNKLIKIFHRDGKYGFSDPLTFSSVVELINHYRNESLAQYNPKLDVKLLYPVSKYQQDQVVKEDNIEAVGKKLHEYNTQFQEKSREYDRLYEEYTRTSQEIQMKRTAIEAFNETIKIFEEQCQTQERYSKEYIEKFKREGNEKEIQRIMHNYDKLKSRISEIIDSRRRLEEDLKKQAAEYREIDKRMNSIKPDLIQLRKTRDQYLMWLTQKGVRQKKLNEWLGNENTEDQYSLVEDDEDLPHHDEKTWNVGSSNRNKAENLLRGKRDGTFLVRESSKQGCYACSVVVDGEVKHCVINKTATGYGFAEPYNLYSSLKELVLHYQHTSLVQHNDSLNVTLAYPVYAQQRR
In short: as §1

IC50 [1] [nM] | IC50 [2] [nM] | IC50 [3] [nM] | Structure (SMILES)
< 50 | 500 to 1000 | < 500 | Cc1cc([C@@H](C)Nc2cccc(F)c2C(=O)O)c2oc(-c3ccccc3)c(C)c(=O)c2c1 [Example 69, 2-[[(1R)-1-(3,6-Dimethyl-4-oxo-2-phenyl-chromen-8-yl)ethyl]amino]-6-fluoro-benzoic acid]
< 50 | > 10000 | < 500 | Cc1cc([C@@H](C)Nc2ccccc2C(=O)O)c2oc(-c3cccc(C(F)F)c3)c(C)c(=O)c2c1 [Example 73, 2-[[(1R)-1-[2-[3-(Difluoromethyl)phenyl]-3,6-dimethyl-4-oxo-chromen-8-yl]ethyl]amino]benzoic acid 2,2,2-trifluoroacetic acid]
< 50 | 1000 to 5000 | < 500 | Cc1cc([C@@H](C)Nc2ccccc2C(=O)O)c2oc(-c3ccc(F)cc3F)c(C)c(=O)c2c1 [Example 75, 2-[[(1R)-1-[2-(2,4-Difluorophenyl)-3,6-dimethyl-4-oxo-chromen-8-yl]ethyl]amino]benzoic acid]
< 50 | 5000 to 10000 | < 500 | Cc1cc([C@@H](C)Nc2cccc(Cl)c2C(=O)O)c2oc(-c3ccccc3)c(C)c(=O)c2c1 [Example 76, 2-Chloro-6-[[(1R)-1-(3,6-dimethyl-4-oxo-2-phenyl-chromen-8-yl)ethyl]amino]benzoic acid]
< 50 | 1000 to 5000 | < 500 | C[C@@H](Nc1ccc(Cl)nc1C(=O)O)c1cc(C(F)(F)F)cc2c(=O)cc(-c3ccc(F)cc3F)oc12 [Example 81, 6-Chloro-3-[[(1R)-1-[2-(2,4-difluorophenyl)-4-oxo-6-(trifluoromethyl)-chromen-8-yl]ethyl]amino]pyridine-2-carboxylic acid]
< 50 | 1000 to 5000 | < 500 | Cc1cc([C@@H](C)Nc2ccccc2C(=O)O)c2oc(-c3ccccc3)c(-c3cnoc3)c(=O)c2c1 [Example 85, 2-[[(1R)-1-(3-Isoxazol-4-yl-6-methyl-4-oxo-2-phenyl-chromen-8-yl)ethyl]amino]benzoic acid 2,2,2-trifluoroacetic acid]
< 50 | 1000 to 5000 | < 500 | C[C@@H](Nc1ccc(Cl)nc1C(=O)O)c1cc(C(F)(F)F)cc2c(=O)cc(-c3ccc(F)c(F)c3)oc12 [Example 88, 6-Chloro-3-[[(1R)-1-[2-(3,4-difluorophenyl)-4-oxo-6-(trifluoromethyl)-chromen-8-yl]ethyl]amino]pyridine-2-carboxylic acid]
< 50 | 1000 to 5000 | < 500 | Cc1c(-c2ccccc2)oc2c([C@@H](C)Nc3ccc(Cl)nc3C(=O)O)cc(C(F)(F)F)cc2c1=O [Example 91, 6-Chloro-3-[[(1R)-1-[3-methyl-4-oxo-2-phenyl-6-(trifluoromethyl)-chromen-8-yl]ethyl]amino]pyridine-2-carboxylic acid]
< 50 | 1000 to 5000 | < 500 | Cc1cc(C(C)Nc2cccc(F)c2C(=O)O)c2oc(-c3ccccc3F)c(C)c(=O)c2c1 (stereo not drawn) [Example 94, 2-Fluoro-6-[1-[2-(2-fluorophenyl)-3,6-dimethyl-4-oxo-chromen-8-yl]ethylamino]benzoic acid 2,2,2-trifluoroacetic acid]
< 50 | 1000 to 5000 | < 500 | Cc1c(-c2ccc(F)c(F)c2)oc2c([C@@H](C)Nc3ccc(Cl)nc3C(=O)O)cc(C(F)(F)F)cc2c1=O [Example 96, 6-Chloro-3-[[(1R)-1-[2-(3,4-difluorophenyl)-3-methyl-4-oxo-6-(trifluoromethyl)-chromen-8-yl]ethyl]amino]pyridine-2-carboxylic acid]
< 50 | 1000 to 5000 | < 500 | Cc1c(-c2ccccc2F)oc2c([C@@H](C)Nc3ccc(Cl)nc3C(=O)O)cc(C(F)(F)F)cc2c1=O [Example 98, 6-Chloro-3-[[(1R)-1-[2-(2-fluorophenyl)-3-methyl-4-oxo-6-(trifluoromethyl)-chromen-8-yl]ethyl]amino]pyridine-2-carboxylic acid]
< 50 | < 500 | < 500 | Cc1cc(C(C)Nc2ccc(C)nc2C(=O)O)c2oc(-c3ccccc3)c(C(F)(F)F)c(=O)c2c1 (stereo not drawn) [Example 101, 6-Methyl-3-[1-[6-methyl-4-oxo-2-phenyl-3-(trifluoromethyl)-chromen-8-yl]ethylamino]pyridine-2-carboxylic acid 2,2,2-trifluoroacetic acid]
< 50 | 1000 to 5000 | < 500 | Cc1cc([C@@H](C)Nc2ccc(Cl)nc2C(=O)O)c2oc(-c3ccc(F)c(F)c3)c(C)c(=O)c2c1 [Example 113, 6-Chloro-3-[[(1R)-1-[2-(3,4-difluorophenyl)-3,6-dimethyl-4-oxo-chromen-8-yl]ethyl]amino]pyridine-2-carboxylic acid]
< 50 | 1000 to 5000 | < 500 | Cc1cc([C@@H](C)Nc2ccc(Cl)nc2C(=O)O)c2oc(-c3ccccc3F)c(C)c(=O)c2c1 [Example 114, 6-Chloro-3-[[(1R)-1-[2-(2-fluorophenyl)-3,6-dimethyl-4-oxo-chromen-8-yl]ethyl]amino]pyridine-2-carboxylic acid 2,2,2-trifluoroacetic acid]

The next lines start with the compound.

Structure (SMILES) | IC50 [1] [nM] | IC50 [2] [nM] | IC50 [3] [nM]
Cc1cc([C@@H](C)Nc2ccccc2C(=O)O)c2oc(-c3ccccc3)c(C(F)(F)F)c(=O)c2c1 [Example 70, 2-[[(1R)-1-[6-Methyl-4-oxo-2-phenyl-3-(trifluoromethyl)-chromen-8-yl]ethyl]amino]benzoic acid 2,2,2-trifluoroacetic acid] | < 50 | 1000 to 5000 | < 500
Cc1cc([C@@H](C)Nc2ccccc2C(=O)O)c2oc(-c3ccc(F)c(F)c3)c(C)c(=O)c2c1 [Example 78, 2-[[(1R)-1-[2-(3,4-Difluorophenyl)-3,6-dimethyl-4-oxo-chromen-8-yl]ethyl]amino]benzoic acid 2,2,2-trifluoroacetic acid] | < 50 | 1000 to 5000 | < 500
Cc1c(-c2ccccc2)oc2c([C@@H](C)Nc3ccccc3C(=O)O)cc(F)cc2c1=O [Example 84, 2-[[(1R)-1-(6-Fluoro-3-methyl-4-oxo-2-phenyl-chromen-8-yl)ethyl]amino]benzoic acid 2,2,2-trifluoroacetic acid] | > 500 | 5000 to 10000 | < 500
Cc1cc([C@@H](C)Nc2ccccc2C(=O)O)c2oc(-c3cccc(F)c3F)c(C)c(=O)c2c1 [Example 92, 2-[[(1R)-1-[2-(2,3-Difluorophenyl)-3,6-dimethyl-4-oxo-chromen-8-yl]ethyl]amino]benzoic acid 2,2,2-trifluoroacetic acid] | < 50 | 5000 to 10000 | < 500
Cc1cc(C(C)Nc2cccnc2C(=O)O)c2oc(-c3ccccc3F)c(C)c(=O)c2c1 (stereo not drawn) [Example 93, 3-[1-[2-(2-Fluorophenyl)-3,6-dimethyl-4-oxo-chromen-8-yl]ethylamino]pyridine-2-carboxylic acid 2,2,2-trifluoroacetic acid] | 100 to 500 | > 10000 | 1000 to 5000
Cc1cc(C(C)Nc2cccc(F)c2C(=O)O)c2oc(-c3cccc(F)c3)c(C)c(=O)c2c1 (stereo not drawn) [Example 95, 2-Fluoro-6-[1-[2-(3-fluorophenyl)-3,6-dimethyl-4-oxo-chromen-8-yl]ethylamino]benzoic acid 2,2,2-trifluoroacetic acid] | < 50 | 1000 to 5000 | < 500
Cc1c(-c2ccc(F)cc2F)oc2c([C@@H](C)Nc3ccc(Cl)nc3C(=O)O)cc(C(F)(F)F)cc2c1=O [Example 99, 6-Chloro-3-[[(1R)-1-[2-(2,4-difluorophenyl)-3-methyl-4-oxo-6-(trifluoromethyl)-chromen-8-yl]ethyl]amino]pyridine-2-carboxylic acid] | < 50 | 500 to 1000 | < 500
Cc1c(-c2ccccc2)oc2c([C@@H](C)Nc3ccccc3C(=O)O)cc(C(F)(F)F)cc2c1=O [Example 102, 2-[[(1R)-1-[3-Methyl-4-oxo-2-phenyl-6-(trifluoromethyl)-chromen-8-yl]ethyl]amino]benzoic acid] | < 50 | 1000 to 5000 | < 500
Cc1cc(C(C)Nc2ccccc2C(=O)O)c2oc(-c3ccccc3)c(F)c(=O)c2c1 (stereo not drawn) [Example 111, 2-[1-(3-Fluoro-6-methyl-4-oxo-2-phenyl-chromen-8-yl)ethylamino]benzoic acid 2,2,2-trifluoroacetic acid] | < 50 | 1000 to 5000 | < 500
Cc1cc([C@@H](C)Nc2ccccc2C(=O)O)c2oc(-c3ccccc3)c(C3COC3)c(=O)c2c1 [Example 112, 2-[[(1R)-1-[6-methyl-3-(oxetan-3-yl)-4-oxo-2-phenyl-chromen-8-yl]ethyl]amino]benzoic acid 2,2,2-trifluoroacetic acid] | 50 to 100 | 1000 to 5000 | < 500
